What was measured:
purple nutsedge = assay: Test B pre/postemergence purple nutsedge; type: in vivo, Cyperus rotundus; conditions: Preemergence; for Plant response rating, Nutsedge: Rate 125 g/ha
How it was run: (§1)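 Test chemicals in a non-phytotoxic solvent mixture with surfactant were sprayed preemergence onto planted seeds and postemergence onto plants 2 to 18 cm tall (1- to 4-leaf stage). After twelve to sixteen days in a greenhouse, injury was visually rated against untreated controls from 0 (no effect) to 10 (complete control).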

blackgrass = assay: Test B pre/postemergence blackgrass; type: in vivo, Alopecurus myosuroides; conditions: Preemergence; for Plant response rating, Blackgrass: Rate 125 g/ha
How it was run: as §1

wheat = assay: Test B pre/postemergence wheat; type: in vivo, Triticum aestivum; conditions: Preemergence; for Plant response rating, Wheat: Rate 125 g/ha
How it was run: as §1

bedstraw = assay: Test B pre/postemergence bedstraw; type: in vivo, Galium aparine; conditions: Preemergence; for Plant response rating, Bedstraw: Rate 125 g/ha
How it was run: as §1

wild oat = assay: Test B pre/postemergence wild oat; type: in vivo, Avena fatua; conditions: Preemergence; for Plant response rating, Wild oats: Rate 125 g/ha
How it was run: as §1

morningglory = assay: Test B pre/postemergence morningglory; type: in vivo, Ipomoea hederacea; conditions: Preemergence; for Plant response rating, Morningglory: Rate 125 g/ha
How it was run: as §1

velvetleaf = assay: Test B pre/postemergence velvetleaf; type: in vivo, Abutilon theophrasti; conditions: Preemergence; for Plant response rating, Velvetleaf: Rate 125 g/ha
How it was run: as §1

corn = assay: Test B pre/postemergence corn; type: in vivo, Zea mays; conditions: Preemergence; for Plant response rating, Corn: Rate 125 g/ha
How it was run: as §1

surinam grass = assay: Test B pre/postemergence surinam grass; type: in vivo, Brachiaria decumbens; conditions: Preemergence; for Plant response rating, B. signalgrass: Rate 125 g/ha
How it was run: as §1

giant foxtail = assay: Test B pre/postemergence giant foxtail; type: in vivo, Setaria faberii; conditions: Preemergence; for Plant response rating, Giant foxtail: Rate 125 g/ha
How it was run: as §1

crabgrass = assay: Test B pre/postemergence crabgrass; type: in vivo, Digitaria sanguinalis; conditions: Preemergence; for Plant response rating, Crabgrass: Rate 125 g/ha
How it was run: as §1

pigweed = assay: Test B pre/postemergence pigweed; type: in vivo, Amaranthus retroflexus; conditions: Preemergence; for Plant response rating, Redroot pigweed: Rate 125 g/ha
How it was run: as §1

cocklebur = assay: Test B pre/postemergence cocklebur; type: in vivo, Xanthium strumarium; conditions: Preemergence; for Plant response rating, Cocklebur: Rate 125 g/ha
How it was run: as §1

rape = assay: Test B pre/postemergence rape; type: in vivo, Brassica napus; conditions: Preemergence; for Plant response rating, Rape: Rate 125 g/ha
How it was run: as §1

soybean = assay: Test B pre/postemergence soybean; type: in vivo, Glycine max; conditions: Preemergence; for Plant response rating, Soybean: Rate 125 g/ha
How it was run: as §1

sugar beet = assay: Test B pre/postemergence sugar beet; type: in vivo, Beta vulgaris; conditions: Preemergence; for Plant response rating, Sugarbeets: Rate 125 g/ha
How it was run: as §1

[1] = Rate 62 g/ha, scale of 0 to 10 where 0 is no effect and 10 is complete control
[2] = Rate 250 g/ha, scale 0 (no effect) to 10 (complete control)
[3] = Rate 500 g/ha, scale 0 to 10 (0 no effect, 10 complete control)
[4] = scale of 0 to 10 where 0 is no effect and 10 is complete control

CC(C)N(C(=O)n1oc(=O)n(C(C)C2CCC2)c1=O)c1ccccc1 (stereo not drawn) [Compound 717]
Nutsedge plant response rating (purple nutsedge; [1]): 0 | Nutsedge plant response rating (purple nutsedge; [2]): 0 | Nutsedge plant response rating (purple nutsedge; [3]): 0 | Blackgrass plant response rating (blackgrass; [1]): 9 | Blackgrass plant response rating (blackgrass; [2]): 10 | Blackgrass plant response rating (blackgrass; [3]): 10 | Wheat plant response rating (wheat; [1]): 0 | Wheat plant response rating (wheat; [2]): 0 | Wheat plant response rating (wheat; [3]): 0 | Bedstraw plant response rating (bedstraw; [1]): 0 | Bedstraw plant response rating (bedstraw; [2]): 0 | Bedstraw plant response rating (bedstraw; [3]): 0 | Wild oats plant response rating (wild oat; [1]): 9 | Wild oats plant response rating (wild oat; [2]): 9 | Wild oats plant response rating (wild oat; [3]): 10 | Morningglory plant response rating (morningglory; [1]): 0 | Morningglory plant response rating (morningglory; [2]): 0 | Morningglory plant response rating (morningglory; [3]): 0 | Velvetleaf plant response rating (velvetleaf; [1]): 0 | Velvetleaf plant response rating (velvetleaf; [2]): 0 | Velvetleaf plant response rating (velvetleaf; [3]): 0 | Corn plant response rating (corn; [1]): 0 | Corn plant response rating (corn; [2]): 3 | Corn plant response rating (corn; [3]): 9 | B. signalgrass plant response rating (surinam grass; [1]): 4 | B. signalgrass plant response rating (surinam grass; [2]): 7 | B. signalgrass plant response rating (surinam grass; [3]): 7 | Giant foxtail plant response rating (giant foxtail; [1]): 10 | Giant foxtail plant response rating (giant foxtail; [2]): 10 | Giant foxtail plant response rating (giant foxtail; [3]): 10 | Crabgrass plant response rating (crabgrass; [1]): 10 | Crabgrass plant response rating (crabgrass; [2]): 10 | Crabgrass plant response rating (crabgrass; [3]): 10 | Redroot pigweed plant response rating (pigweed; [1]): 6 | Redroot pigweed plant response rating (pigweed; [2]): 8 | Redroot pigweed plant response rating (pigweed; [3]): 8 | Cocklebur plant response rating (cocklebur; [1]): 0 | Cocklebur plant response rating (cocklebur; [2]): 0 | Cocklebur plant response rating (cocklebur; [3]): 0 | Rape plant response rating (rape; [1]): 0 | Rape plant response rating (rape; [2]): 0 | Rape plant response rating (rape; [3]): 4 | Soybean plant response rating (soybean; [1]): 0 | Soybean plant response rating (soybean; [2]): 0 | Soybean plant response rating (soybean; [3]): 0 | Sugarbeets plant response rating (sugar beet; [1]): 0 | Sugarbeets plant response rating (sugar beet; [2]): 2 | Sugarbeets plant response rating (sugar beet; [3]): 3

CC(C)N(C(=O)n1oc(=O)n(CCC(=O)N(C)C)c1=O)c1ccc(Cl)cc1 [Compound 719]
Nutsedge plant response rating (purple nutsedge; [1]): 0 | Plant response rating, Nutsedge (purple nutsedge; [4]): 0 | Nutsedge plant response rating (purple nutsedge; [2]): 0 | Nutsedge plant response rating (purple nutsedge; [3]): 0 | Blackgrass plant response rating (blackgrass; [1]): 6 | Plant response rating, Blackgrass (blackgrass; [4]): 8 | Blackgrass plant response rating (blackgrass; [2]): 9 | Blackgrass plant response rating (blackgrass; [3]): 10 | Wheat plant response rating (wheat; [1]): 0 | Plant response rating, Wheat (wheat; [4]): 0 | Wheat plant response rating (wheat; [2]): 3 | Wheat plant response rating (wheat; [3]): 5 | Bedstraw plant response rating (bedstraw; [1]): 0 | Plant response rating, Bedstraw (bedstraw; [4]): 0 | Bedstraw plant response rating (bedstraw; [2]): 0 | Bedstraw plant response rating (bedstraw; [3]): 0 | Wild oats plant response rating (wild oat; [1]): 2 | Plant response rating, Wild oats (wild oat; [4]): 6 | Wild oats plant response rating (wild oat; [2]): 9 | Wild oats plant response rating (wild oat; [3]): 9 | Morningglory plant response rating (morningglory; [1]): 0 | Plant response rating, Morningglory (morningglory; [4]): 1 | Morningglory plant response rating (morningglory; [2]): 3 | Morningglory plant response rating (morningglory; [3]): 3 | Velvetleaf plant response rating (velvetleaf; [1]): 0 | Plant response rating, Velvetleaf (velvetleaf; [4]): 0 | Velvetleaf plant response rating (velvetleaf; [2]): 0 | Velvetleaf plant response rating (velvetleaf; [3]): 0 | Corn plant response rating (corn; [1]): 0 | Plant response rating, Corn (corn; [4]): 0 | Corn plant response rating (corn; [2]): 0 | Corn plant response rating (corn; [3]): 5 | B. signalgrass plant response rating (surinam grass; [1]): 3 | Plant response rating, B. signalgrass (surinam grass; [4]): 7 | B. signalgrass plant response rating (surinam grass; [2]): 7 | B. signalgrass plant response rating (surinam grass; [3]): 9 | Plant response rating, Giant foxtail (giant foxtail; [4]): 5 | Giant foxtail plant response rating (giant foxtail; [2]): 8 | Giant foxtail plant response rating (giant foxtail; [3]): 10 | Plant response rating, Crabgrass (crabgrass; [4]): 3 | Crabgrass plant response rating (crabgrass; [2]): 8 | Crabgrass plant response rating (crabgrass; [3]): 9 | Redroot pigweed plant response rating (pigweed; [1]): 7 | Plant response rating, Redroot pigweed (pigweed; [4]): 7 | Redroot pigweed plant response rating (pigweed; [2]): 10 | Redroot pigweed plant response rating (pigweed; [3]): 10 | Cocklebur plant response rating (cocklebur; [1]): 0 | Plant response rating, Cocklebur (cocklebur; [4]): 0 | Cocklebur plant response rating (cocklebur; [2]): 0 | Cocklebur plant response rating (cocklebur; [3]): 0 | Rape plant response rating (rape; [1]): 0 | Plant response rating, Rape (rape; [4]): 0 | Rape plant response rating (rape; [2]): 2 | Rape plant response rating (rape; [3]): 6 | Soybean plant response rating (soybean; [1]): 0 | Plant response rating, Soybean (soybean; [4]): 0 | Soybean plant response rating (soybean; [2]): 0 | Soybean plant response rating (soybean; [3]): 0 | Sugarbeets plant response rating (sugar beet; [1]): 4 | Plant response rating, Sugarbeets (sugar beet; [4]): 4 | Sugarbeets plant response rating (sugar beet; [2]): 6 | Sugarbeets plant response rating (sugar beet; [3]): 8

COCC(OC)n1c(=O)on(C(=O)N(c2ccc(Cl)cc2)C(C)C)c1=O (stereo not drawn) [Compound 726]
Nutsedge plant response rating (purple nutsedge; [1]): 0 | Plant response rating, Nutsedge (purple nutsedge; [4]): 0 | Nutsedge plant response rating (purple nutsedge; [2]): 0 | Nutsedge plant response rating (purple nutsedge; [3]): 0 | Blackgrass plant response rating (blackgrass; [1]): 7 | Plant response rating, Blackgrass (blackgrass; [4]): 8 | Blackgrass plant response rating (blackgrass; [2]): 8 | Blackgrass plant response rating (blackgrass; [3]): 9 | Wheat plant response rating (wheat; [1]): 0 | Plant response rating, Wheat (wheat; [4]): 0 | Wheat plant response rating (wheat; [2]): 0 | Wheat plant response rating (wheat; [3]): 0 | Bedstraw plant response rating (bedstraw; [1]): 0 | Plant response rating, Bedstraw (bedstraw; [4]): 0 | Bedstraw plant response rating (bedstraw; [2]): 0 | Bedstraw plant response rating (bedstraw; [3]): 0 | Wild oats plant response rating (wild oat; [1]): 1 | Plant response rating, Wild oats (wild oat; [4]): 7 | Wild oats plant response rating (wild oat; [2]): 8 | Wild oats plant response rating (wild oat; [3]): 9 | Morningglory plant response rating (morningglory; [1]): 0 | Plant response rating, Morningglory (morningglory; [4]): 0 | Morningglory plant response rating (morningglory; [2]): 1 | Morningglory plant response rating (morningglory; [3]): 1 | Velvetleaf plant response rating (velvetleaf; [1]): 0 | Plant response rating, Velvetleaf (velvetleaf; [4]): 0 | Velvetleaf plant response rating (velvetleaf; [2]): 0 | Velvetleaf plant response rating (velvetleaf; [3]): 0 | Corn plant response rating (corn; [1]): 0 | Plant response rating, Corn (corn; [4]): 0 | Corn plant response rating (corn; [2]): 0 | Corn plant response rating (corn; [3]): 2 | B. signalgrass plant response rating (surinam grass; [1]): 4 | Plant response rating, B. signalgrass (surinam grass; [4]): 7 | B. signalgrass plant response rating (surinam grass; [2]): 7 | B. signalgrass plant response rating (surinam grass; [3]): 9 | Giant foxtail plant response rating (giant foxtail; [1]): 9 | Plant response rating, Giant foxtail (giant foxtail; [4]): 9 | Giant foxtail plant response rating (giant foxtail; [2]): 10 | Giant foxtail plant response rating (giant foxtail; [3]): 10 | Crabgrass plant response rating (crabgrass; [1]): 9 | Plant response rating, Crabgrass (crabgrass; [4]): 9 | Crabgrass plant response rating (crabgrass; [2]): 9 | Crabgrass plant response rating (crabgrass; [3]): 10 | Redroot pigweed plant response rating (pigweed; [1]): 0 | Plant response rating, Redroot pigweed (pigweed; [4]): 4 | Redroot pigweed plant response rating (pigweed; [2]): 7 | Redroot pigweed plant response rating (pigweed; [3]): 8 | Cocklebur plant response rating (cocklebur; [1]): 0 | Plant response rating, Cocklebur (cocklebur; [4]): 0 | Cocklebur plant response rating (cocklebur; [2]): 0 | Cocklebur plant response rating (cocklebur; [3]): 0 | Rape plant response rating (rape; [1]): 0 | Plant response rating, Rape (rape; [4]): 0 | Rape plant response rating (rape; [2]): 0 | Rape plant response rating (rape; [3]): 7 | Soybean plant response rating (soybean; [1]): 0 | Plant response rating, Soybean (soybean; [4]): 0 | Soybean plant response rating (soybean; [2]): 0 | Soybean plant response rating (soybean; [3]): 0 | Sugarbeets plant response rating (sugar beet; [1]): 0 | Plant response rating, Sugarbeets (sugar beet; [4]): 0 | Sugarbeets plant response rating (sugar beet; [2]): 5 | Sugarbeets plant response rating (sugar beet; [3]): 5

From patent US6737383B1, “Herbicidal oxadiazolidines” (priority 1999, dated 2004)
